Like-named read-outs stand apart in the source and are kept apart here. Blank lines part the entries; values can stand above or below the compound they belong to.
Key:
NVL-AID = test: Viability of NVL^AID/AID cells on auxin-induced NVL degradation; type: cell-based, human
From the text: To study the effect of NVL depletion, we engineered a C-terminal FLAG-epitope auxin-inducible degron (AID) tag into NVL in cells that also express the plant E3 ligase TIR1.

HCT116 cells = test: Cell viability assay (CellTiter-Glo, 72 hours) in HCT116 human colorectal cancer cells; type: cell-based; conditions: Homo sapiens, HCT-116
Method in brief: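 2,000 cells/well adhered overnight, then compound added by digital dispenser with DMSO normalized to 0.5%. Viability read after 72 h at 37 °C by ATP-based CellTiter-Glo luminescence. IC50 from ten-point curves baseline-corrected to vehicle, five-parameter asymmetric least-squares fit.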

HCT116 NVL^P307T cells = test: Cell viability in compound-resistant HCT116 NVL^P307T cells; type: cell-based, human
From the text: Assessing the ability of NVL2 inhibitors to selectively kill WT versus NVL2^mut HCT116, block ribosome biogenesis and induce p53. We evaluate analogs in the colorectal cancer cell line HCT116 and already available compound-resistant clones. One clone has a mutation in the compound binding site (NVL2^R403W) and another clone (NVL2^P307T) has a mutation distant from the binding site that confers resistance through an unknown effect. Based on our results, analogs that kill HCT116 cells via NVL2 inhibition (on-target) have reduced potency in compound-resistant HCT116 mutant clones. Our analogs have been counter-screened against the NVL2 compound-resistant mutant clones with fold resistance range between 10-100 fold (most analogs 20-50 fold). This counter screen provides a strategy for identifying off-target toxins.
From whole exome sequencing, we identified variants that were acquired during IAA-induced mutagenesis with the hypothesis that genes related to resistance will be mutated in multiple clones. Two genes contained acquired variants in at least 3 of the 15 selected clones: TERT, mutated in 3 of 15 clones, and NVL, mutated in all 15 clones. […] In sum, 57 out of 59 unique clones harbored NVL mutations. The majority of mutations clustered within the D1 AAA+ ATPase domain and frequently affecting the same codons. To test whether these mutations are sufficient for MM017 resistance, we used CRISPR-Cas9 to knock-in two of the most resistant mutations (NVL^P307T, NVL^R403W) and a mutation with intermediate resistance (NVL^H304R). Transfection of cells with sgRNAs targeting these NVL residues in addition to a mutation-encoding repair template yielded an increased rate of resistance when compared to mock treatments.
(§1) HCT116 cells were transfected with TransIT-LT (Mirus #MIR2304) according to manufacturer's protocol with a guide RNA (either mock or NVL targeting) in the px330 vector (Addgene, #42230), and 10 nM single stranded deoxyoligonucleotide encoding a specific NVL mutation (see below for specific sequences). 72 hours after transfection, cells were selected by MM017 treatment. The resulting cells were evaluated by cresyl violet staining or collected and the relevant NVL mutations were analyzed by either amplicon or sanger sequencing.
Cell viability assay: In 96-well assay plates (Corning #2903), 2,000 cells were plated per well in 100 μL of medium and allowed to adhere overnight. The next day, compounds suspended in DMSO were dispensed to the assayed wells using a D300e Digital Dispenser (Tecan). All wells were normalized to 0.5% DMSO. 72 hours after incubation at 37° C. in 5% CO2, cell viability was assayed using an ATP-based luminescent viability assay, CellTiter-Glo (Promega #G8462). Substrate was mixed 1:1 with phosphate-buffered saline (PBS) supplemented with 1% Triton X-100, and 40 μL of this mixture was added to the assay wells. Plates were shaken on a microplate shaker for 10 minutes at room temperature. Luminescence (CellTiter-Glo) was recorded using a Synergy 2 microplate reader (BioTek). In Prism 9 software (GraphPad), ten-point dose response curves were plotted with baseline-correction to the vehicle control well, and IC50 values were calculated by curve fitting using asymmetric (five parameter), least squares fit.

NVL = biological target: T1, NVL (Homo sapiens, UniProt O15381); test: Photo-crosslinking, affinity purification and probe displacement of NVL in cells; type: binding; parameters: endogenous in cells
T1 sequence (O15381 1-856): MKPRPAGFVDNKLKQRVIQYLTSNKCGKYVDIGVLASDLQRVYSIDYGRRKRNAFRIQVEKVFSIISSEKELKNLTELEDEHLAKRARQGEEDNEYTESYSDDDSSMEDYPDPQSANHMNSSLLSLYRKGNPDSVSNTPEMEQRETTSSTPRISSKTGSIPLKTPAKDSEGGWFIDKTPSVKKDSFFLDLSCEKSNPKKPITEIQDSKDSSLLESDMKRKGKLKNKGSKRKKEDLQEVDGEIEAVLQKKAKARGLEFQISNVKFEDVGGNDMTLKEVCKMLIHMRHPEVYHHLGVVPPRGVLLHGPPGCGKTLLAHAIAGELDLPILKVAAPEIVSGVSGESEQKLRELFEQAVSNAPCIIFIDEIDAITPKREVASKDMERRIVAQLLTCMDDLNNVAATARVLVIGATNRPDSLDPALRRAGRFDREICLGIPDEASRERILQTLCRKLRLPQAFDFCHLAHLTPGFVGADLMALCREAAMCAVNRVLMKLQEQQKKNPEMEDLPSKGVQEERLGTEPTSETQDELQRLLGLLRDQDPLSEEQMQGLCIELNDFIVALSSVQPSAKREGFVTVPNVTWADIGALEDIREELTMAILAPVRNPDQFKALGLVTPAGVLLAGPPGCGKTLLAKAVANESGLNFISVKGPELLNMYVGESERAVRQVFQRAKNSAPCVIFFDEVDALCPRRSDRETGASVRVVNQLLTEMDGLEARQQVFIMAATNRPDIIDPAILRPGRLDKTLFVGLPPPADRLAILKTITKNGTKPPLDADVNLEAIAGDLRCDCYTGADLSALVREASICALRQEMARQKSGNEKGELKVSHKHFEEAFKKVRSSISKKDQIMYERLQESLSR
From the text: To test whether NVL2 mutations prevent compound binding, we synthesized MM0514, a crosslinker derivative of MM017. MM0514 contains an aryl azide, and thus is capable of covalently modifying target proteins following exposure to UV light. MM0514 also contains an alkyne group providing a “handle” to purify bound proteins using click chemistry. Critically, MM0514 retains on-target activity to HCT116 cells since NVL2^R403W mutant cells are resistant. We crosslinked either parental or NVL2^R403W HCT116 cells to MM0514 and analyzed NVL2 binding. […] To characterize the binding site, we solved the cryo-EM structure of NVL2 with MM017. MM017 binds to a single site in the asymmetric hexamer near the D subunit. Consistent with our binding data, the mutations map near the binding site, including R403, which is mutated to tryptophan in a resistant clone and predicted to prevent binding of MM017 or related analogs. The cryo-EM structure of NVL2 with MM017 provides further evidence of target identification and also a tool for optimizing a bioavailable compound.
To assess whether MM017 binds directly to NVL in cells, we used a MM017 crosslinker (Probe compound (2), Table A) that is UV-activatable and contains an alkyne that can be coupled to biotin for affinity purification. […]

cleaved caspase-3 = test: Cleaved caspase-3 (apoptosis), HCT116 control and p53 KO cells; type: cell-based, human
From the text: The upregulation of p53 and its effector p21 can arrest cell growth or induce cell death through apoptosis. […] Next, we addressed whether cell death was mediated by an apoptotic pathway by assaying for cleaved caspase-3, a bona fide marker of apoptosis.

902 cancer cell lines = test: PRISM screen across 902 cancer cell lines; type: cell-based; conditions: 902 cancer cell lines, 1,215 compounds
From the text: (§2) Inhibition of 60S ribosome biogenesis is known to induce the stability and upregulation of p53, which could serve as a potential pharmacodynamics marker for MM017 in HCT116 cells. […] We used PRISM (Broad Institute) to evaluate the selectivity of MM017 across 902 cancer cell lines and then correlated this selectivity to 1,215 clinical and pre-clinical compounds in the PRISM database. […] These observations indicate that oxaliplatin and carmofur, like MM017, target ribosome biogenesis.
To nominate genetic predictors of MM017 sensitivity across different cancer types, we performed a PRISM screen across 902 cancer cell lines with known genotypes (31). […] These findings are consistent with the isogenic CRISPR screen and indicate that p53 is a critical effector for MM017 in cancer cells from multiple lineages and with differing genotypes.

p53 and p21 = p53 and p21 protein levels in HCT116 cells; type: cell-based, human
From the text: as §2

[1] = tested on: serine 15 phosphorylated p53; test: p53 serine 15 phosphorylation (DNA damage response marker); conditions: MM017 up to 10 μM
From the text: A biochemical marker for activation of the DNA damage response is phosphorylation of serine 15 of p53, which results in increased p53 protein (41). Thus, we compared the impact of MM017, oxaliplatin, and CX-5461 on both p53 upregulation and p53 serine 15 phosphorylation.

HCT116 NVL^R403W cells = test: Cell viability counter-screen in compound-resistant HCT116 NVL^R403W cells; type: cell-based, human; conditions: NVL^P307T, NVL^R403W or NVL^H304R cells
Method: Design and synthesis of benzothiazepine-based NVL inhibitors. […] Analogs were evaluated against the colorectal cancer cell line HCT116, and counter-screened against a compound resistant NVL2^R403W clone. Cytotoxicity in wild-type HCT116 was determined. […] Initial SAR focused on exploring the replacement of the furan ring of initial dibenzothiazepinone hit MM017. We first explored a wide variety of mono- and di-substituted phenyl rings, including a broad spectrum of functionality (F, Cl, alkyl, alkoxy, fluoroalkoxy, CN, formamide, S(O) Me, carboxyl, . . . ). […]
as §1, with “72 hours after transfection, cells were selected by MM017 treatment.” left out
Cell viability assay: In 96-well assay plates (Corning #2903), 2,000 cells were plated per well in 100 μL of medium and allowed to adhere overnight. […] Luminescence (CellTiter-Glo) was recorded using a Synergy 2 microplate reader (BioTek). […]

[2] = tested on: p53 KO and p21 KO HCT116 cells; test: Growth competition of p53 or p21 knockout versus control HCT116 cells; type: cell-based, human
From the text: To better understand how inhibition of NVL by MM017 leads to cell death, we performed a genome wide pooled CRISPR/Cas9 knockout screen in HCT116 cells using a library of guide RNAs targeting 19,114 genes. Cells were pulsed intermittently with vehicle or MM017 over 21 days, at which point MM017 treated cells had undergone 9.79 fewer population doublings. Massively parallel sequencing of PCR products amplified from genomic DNA was used to determine relative levels of sgRNA sequences to infer the relative impact of each gene on compound sensitivity. […] To confirm whether p53 and p21 are required for the anti-proliferative activity of MM017, we performed a growth competition experiment between cells expressing ZsGreen with either p53 or p21 knockout (KO) and control cells expressing mCherry. Without treatment, the ratio between green and red cells was unchanged over time.

[3] = tested on: HCT116 control and p53 KO cells; test: Cell death by loss in membrane permeability, HCT116 control and p53 KO cells; type: cell-based, human; conditions: five-day treatment

Compound: O=C(O)Cc1c[nH]c2ccc(-c3ccccc3)cc12 [Ph-IAA, 5-Phenyl-indole-3-acetic acid]
viability of NVL^AID/AID cells (NVL-AID): reduced viability in a dose-dependent manner

IC50 (HCT116 cells; read-out: IC50, proliferation of HCT116 cells): 470 nM
Compound: C#CCOCCN1C(=O)c2ccccc2Sc2cc(NC(=O)c3ccc(N=[N+]=[N-])cc3)ccc21 [Probe compound 2, 4-Azido-N-(11-oxo-10-(2-(prop-2-yn-1-yloxy)ethyl)-10, 11-dihydro-dibenzo[b,f][1,4]thiazepin-7-yl)benzamide]
resistance of NVL^P307T cells (HCT116 NVL^P307T cells): comparatively resistant | NVL crosslinked to / purified with probe (NVL; UV light): only detected in conditions that included both the MM017-probe and UV light

Compound: CN[C@@H]1C[C@H]2O[C@@](C)([C@@H]1OC)n1c3ccccc3c3c4c(c5c6ccccc6n2c5c31)C(=O)NC4 [Staurosporine, reference compound]
cleaved caspase-3 (cleaved caspase-3): robust caspase activation in both control and p53 KO cells

Compound: CCCCCCNC(=O)n1cc(F)c(=O)[nH]c1=O [carmofur]
correlation (r) of selectivity with MM017 (902 cancer cell lines): 0.53

IC50 (HCT116 cells; read-out: IC50s (cellular activity of MM017 derivatives)): 360 nM | displacement of MM017-probe from NVL (NVL; NVL-FLAG knock-in cell line, increasing doses): more effectively displaced MM017-probe
Compound: COCCN1C(=O)c2ccccc2Sc2cc(NC(=O)c3ccc(OC)cc3)ccc21 [compound 3]

Compound: O=C1[O][Pt]2([NH][C@@H]3CCCC[C@H]3[NH]2)[O]C1=O [oxaliplatin, reference compound]
p53 levels in parental HCT116 cells (p53 and p21): dose-dependent increase in the levels of p53 | serine 15 phosphorylated p53 [1]: dose-dependent increase in phosphorylated p53

Compound: CC(=O)O[C@H]1C(=O)[C@@]2(C)[C@H]([C@H](OC(=O)c3ccccc3)[C@]3(O)C[C@H](OC(=O)[C@H](O)[C@@H](NC(=O)c4ccccc4)c4ccccc4)C(C)=C1C3(C)C)[C@]1(OC(C)=O)CO[C@@H]1C[C@@H]2O [paclitaxel, reference compound]
sensitivity of NVL mutant cells compared to NVL^WT (HCT116 NVL^R403W cells): equally sensitive | enrichment of p53 or p21 KO cells in growth competition [2]: no competitive advantage | cell death in p53 KO versus control cells [3]: cell death irrespective of p53

Reference: patent publication US20260097047A1, “Small molecule inhibitors of the ribosome biogenesis factor NVL2” (Board of Regents, The University of Texas System, priority 2023, published 2026)
